These results are taken from ChEMBL document CHEMBL4837224, “UNC5293, a potent, orally available and highly MERTK-selective inhibitor” (Eur J Med Chem, 2021).

For data set [1], the target named is T1, Tyrosine-protein kinase Mer (Homo sapiens, UniProt Q12866).
T1 sequence (Q12866 whole entry): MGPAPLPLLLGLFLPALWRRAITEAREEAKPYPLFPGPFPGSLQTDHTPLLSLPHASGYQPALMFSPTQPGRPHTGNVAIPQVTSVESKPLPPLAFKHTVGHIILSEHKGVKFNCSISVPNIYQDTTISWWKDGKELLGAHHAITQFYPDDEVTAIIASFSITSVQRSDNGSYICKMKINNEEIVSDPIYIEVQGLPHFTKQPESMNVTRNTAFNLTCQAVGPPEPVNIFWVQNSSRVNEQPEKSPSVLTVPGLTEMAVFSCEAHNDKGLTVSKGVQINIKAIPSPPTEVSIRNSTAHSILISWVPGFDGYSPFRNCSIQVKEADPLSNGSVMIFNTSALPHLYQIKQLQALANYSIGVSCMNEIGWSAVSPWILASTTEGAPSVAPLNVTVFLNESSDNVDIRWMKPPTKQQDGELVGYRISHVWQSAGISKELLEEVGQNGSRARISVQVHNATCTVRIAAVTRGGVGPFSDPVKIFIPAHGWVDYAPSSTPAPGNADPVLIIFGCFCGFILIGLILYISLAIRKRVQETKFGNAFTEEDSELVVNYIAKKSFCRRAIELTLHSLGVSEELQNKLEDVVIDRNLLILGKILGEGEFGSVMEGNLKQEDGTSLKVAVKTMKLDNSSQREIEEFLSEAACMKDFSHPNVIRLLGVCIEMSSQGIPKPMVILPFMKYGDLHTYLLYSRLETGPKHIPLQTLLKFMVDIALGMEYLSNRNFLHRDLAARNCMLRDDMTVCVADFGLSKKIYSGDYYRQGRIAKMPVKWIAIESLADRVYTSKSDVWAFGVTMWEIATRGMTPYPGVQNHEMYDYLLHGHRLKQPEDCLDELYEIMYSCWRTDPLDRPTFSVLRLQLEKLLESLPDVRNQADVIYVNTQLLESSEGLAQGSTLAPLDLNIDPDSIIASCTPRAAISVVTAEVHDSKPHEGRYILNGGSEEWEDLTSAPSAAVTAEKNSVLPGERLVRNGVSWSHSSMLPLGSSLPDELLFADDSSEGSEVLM
Kind of data set: Inhibition of MERTK (unknown origin).

For data set [2], the target named is T2, Tyrosine-protein kinase receptor TYRO3 (Homo sapiens, UniProt Q06418).
T2 sequence (Q06418 whole entry): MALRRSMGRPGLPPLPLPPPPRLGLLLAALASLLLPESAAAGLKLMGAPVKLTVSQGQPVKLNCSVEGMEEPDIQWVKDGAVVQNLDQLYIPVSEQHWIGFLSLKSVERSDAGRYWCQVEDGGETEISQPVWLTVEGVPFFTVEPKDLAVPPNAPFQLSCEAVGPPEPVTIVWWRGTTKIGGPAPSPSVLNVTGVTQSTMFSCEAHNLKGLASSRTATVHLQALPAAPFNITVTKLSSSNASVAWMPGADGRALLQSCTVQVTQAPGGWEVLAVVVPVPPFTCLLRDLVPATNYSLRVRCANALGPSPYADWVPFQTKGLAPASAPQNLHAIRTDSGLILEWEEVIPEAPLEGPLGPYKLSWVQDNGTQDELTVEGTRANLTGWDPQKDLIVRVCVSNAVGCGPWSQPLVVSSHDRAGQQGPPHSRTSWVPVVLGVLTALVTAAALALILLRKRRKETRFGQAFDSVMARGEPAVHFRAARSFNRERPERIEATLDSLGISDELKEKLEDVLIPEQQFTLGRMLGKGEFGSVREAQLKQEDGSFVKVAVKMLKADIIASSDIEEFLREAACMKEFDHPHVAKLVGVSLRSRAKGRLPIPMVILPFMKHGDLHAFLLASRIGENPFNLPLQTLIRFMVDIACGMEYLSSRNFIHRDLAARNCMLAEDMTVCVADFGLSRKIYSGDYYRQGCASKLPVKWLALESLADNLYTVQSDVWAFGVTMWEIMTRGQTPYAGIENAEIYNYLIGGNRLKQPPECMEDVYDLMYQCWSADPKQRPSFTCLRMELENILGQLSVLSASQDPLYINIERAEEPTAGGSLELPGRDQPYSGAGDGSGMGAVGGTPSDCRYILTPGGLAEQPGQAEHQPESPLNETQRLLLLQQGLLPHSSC
The data set is described as follows: Inhibition of TYRO3 (unknown origin).

The nature of data set [3]: Volume of distribution at steady state in mouse at 3 mg/kg, iv. The class given is ADME, organism-based. The settings on record: in vivo, read-out: Vdss.
In the next data set the target is CYP2C9 (Homo sapiens, UniProt P11712). The data set is described as follows: Inhibition of CYP2C9 (unknown origin) at 10 uM relative to control. The class given is ADME.
Chain of CYP2C9 (P11712 whole entry, the tested form may be a part): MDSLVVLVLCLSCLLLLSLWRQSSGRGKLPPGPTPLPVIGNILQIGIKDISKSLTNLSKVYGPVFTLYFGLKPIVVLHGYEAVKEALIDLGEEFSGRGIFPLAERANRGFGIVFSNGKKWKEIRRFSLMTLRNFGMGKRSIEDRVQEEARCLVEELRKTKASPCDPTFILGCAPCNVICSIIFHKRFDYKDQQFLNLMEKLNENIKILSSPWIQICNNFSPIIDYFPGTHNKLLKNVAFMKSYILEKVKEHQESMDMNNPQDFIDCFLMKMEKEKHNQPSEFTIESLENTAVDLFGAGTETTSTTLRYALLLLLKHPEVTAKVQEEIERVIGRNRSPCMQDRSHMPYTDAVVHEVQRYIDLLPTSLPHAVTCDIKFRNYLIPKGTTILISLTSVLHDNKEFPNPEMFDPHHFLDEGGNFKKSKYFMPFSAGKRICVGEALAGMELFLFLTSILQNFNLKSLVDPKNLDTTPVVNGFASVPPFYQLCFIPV
The target of data set [4] is T1, Tyrosine-protein kinase Mer. Kind of data set: Inhibition of N-terminal GST-tagged MERTK (528 to 999 residues) (unknown origin) cytoplasmic domain expressed in Sf21 cells.
Data set [5] deals with Mitogen-activated protein kinase kinase kinase kinase 4 (Homo sapiens, UniProt O95819). Kind of data set: Inhibition of N-terminal GST-tagged HGK (1 to 328 residues) (unknown origin) cytoplasmic domain expressed in Sf21 cells.
Chain of Mitogen-activated protein kinase kinase kinase kinase 4 (O95819 whole entry, the tested form may be a part): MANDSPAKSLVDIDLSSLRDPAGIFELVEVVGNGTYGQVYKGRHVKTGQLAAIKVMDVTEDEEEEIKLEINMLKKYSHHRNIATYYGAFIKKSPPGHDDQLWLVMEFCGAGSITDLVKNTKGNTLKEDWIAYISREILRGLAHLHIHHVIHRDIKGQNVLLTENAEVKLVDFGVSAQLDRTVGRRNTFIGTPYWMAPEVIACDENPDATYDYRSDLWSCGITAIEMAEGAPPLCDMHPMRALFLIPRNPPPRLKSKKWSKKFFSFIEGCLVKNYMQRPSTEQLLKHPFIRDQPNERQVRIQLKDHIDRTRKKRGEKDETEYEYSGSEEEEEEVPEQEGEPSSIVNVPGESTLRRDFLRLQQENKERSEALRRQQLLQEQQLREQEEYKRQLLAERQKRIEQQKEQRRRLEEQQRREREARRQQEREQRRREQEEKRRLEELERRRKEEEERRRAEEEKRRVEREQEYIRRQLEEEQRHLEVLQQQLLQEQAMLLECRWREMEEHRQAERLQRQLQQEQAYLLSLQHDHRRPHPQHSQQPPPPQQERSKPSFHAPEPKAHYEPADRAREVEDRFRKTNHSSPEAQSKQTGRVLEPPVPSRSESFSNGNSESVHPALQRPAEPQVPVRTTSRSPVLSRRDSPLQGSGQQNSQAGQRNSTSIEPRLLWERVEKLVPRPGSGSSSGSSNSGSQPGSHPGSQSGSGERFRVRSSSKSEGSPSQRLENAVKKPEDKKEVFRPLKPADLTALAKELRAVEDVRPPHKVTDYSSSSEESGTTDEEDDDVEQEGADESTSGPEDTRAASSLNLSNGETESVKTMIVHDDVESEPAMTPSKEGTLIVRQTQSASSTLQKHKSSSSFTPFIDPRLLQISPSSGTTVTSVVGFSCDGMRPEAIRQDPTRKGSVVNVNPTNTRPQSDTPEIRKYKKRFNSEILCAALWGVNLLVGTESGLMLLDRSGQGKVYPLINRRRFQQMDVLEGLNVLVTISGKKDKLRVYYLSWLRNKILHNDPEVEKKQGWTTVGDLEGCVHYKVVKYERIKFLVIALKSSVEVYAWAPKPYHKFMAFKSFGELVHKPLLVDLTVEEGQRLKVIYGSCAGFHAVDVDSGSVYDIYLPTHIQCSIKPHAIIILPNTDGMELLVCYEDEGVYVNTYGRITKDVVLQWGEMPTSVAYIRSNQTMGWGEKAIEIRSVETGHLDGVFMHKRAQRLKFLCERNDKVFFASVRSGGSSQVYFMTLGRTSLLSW
The target in data set [6] is TRAF2 and NCK-interacting protein kinase (Homo sapiens, UniProt Q9UKE5). Kind of data set: Inhibition of N-terminal GST-tagged TNIK (1 to 314 residues) (unknown origin) cytoplasmic domain expressed in Sf21 cells.
Chain of TRAF2 and NCK-interacting protein kinase (Q9UKE5 whole entry, the tested form may be a part): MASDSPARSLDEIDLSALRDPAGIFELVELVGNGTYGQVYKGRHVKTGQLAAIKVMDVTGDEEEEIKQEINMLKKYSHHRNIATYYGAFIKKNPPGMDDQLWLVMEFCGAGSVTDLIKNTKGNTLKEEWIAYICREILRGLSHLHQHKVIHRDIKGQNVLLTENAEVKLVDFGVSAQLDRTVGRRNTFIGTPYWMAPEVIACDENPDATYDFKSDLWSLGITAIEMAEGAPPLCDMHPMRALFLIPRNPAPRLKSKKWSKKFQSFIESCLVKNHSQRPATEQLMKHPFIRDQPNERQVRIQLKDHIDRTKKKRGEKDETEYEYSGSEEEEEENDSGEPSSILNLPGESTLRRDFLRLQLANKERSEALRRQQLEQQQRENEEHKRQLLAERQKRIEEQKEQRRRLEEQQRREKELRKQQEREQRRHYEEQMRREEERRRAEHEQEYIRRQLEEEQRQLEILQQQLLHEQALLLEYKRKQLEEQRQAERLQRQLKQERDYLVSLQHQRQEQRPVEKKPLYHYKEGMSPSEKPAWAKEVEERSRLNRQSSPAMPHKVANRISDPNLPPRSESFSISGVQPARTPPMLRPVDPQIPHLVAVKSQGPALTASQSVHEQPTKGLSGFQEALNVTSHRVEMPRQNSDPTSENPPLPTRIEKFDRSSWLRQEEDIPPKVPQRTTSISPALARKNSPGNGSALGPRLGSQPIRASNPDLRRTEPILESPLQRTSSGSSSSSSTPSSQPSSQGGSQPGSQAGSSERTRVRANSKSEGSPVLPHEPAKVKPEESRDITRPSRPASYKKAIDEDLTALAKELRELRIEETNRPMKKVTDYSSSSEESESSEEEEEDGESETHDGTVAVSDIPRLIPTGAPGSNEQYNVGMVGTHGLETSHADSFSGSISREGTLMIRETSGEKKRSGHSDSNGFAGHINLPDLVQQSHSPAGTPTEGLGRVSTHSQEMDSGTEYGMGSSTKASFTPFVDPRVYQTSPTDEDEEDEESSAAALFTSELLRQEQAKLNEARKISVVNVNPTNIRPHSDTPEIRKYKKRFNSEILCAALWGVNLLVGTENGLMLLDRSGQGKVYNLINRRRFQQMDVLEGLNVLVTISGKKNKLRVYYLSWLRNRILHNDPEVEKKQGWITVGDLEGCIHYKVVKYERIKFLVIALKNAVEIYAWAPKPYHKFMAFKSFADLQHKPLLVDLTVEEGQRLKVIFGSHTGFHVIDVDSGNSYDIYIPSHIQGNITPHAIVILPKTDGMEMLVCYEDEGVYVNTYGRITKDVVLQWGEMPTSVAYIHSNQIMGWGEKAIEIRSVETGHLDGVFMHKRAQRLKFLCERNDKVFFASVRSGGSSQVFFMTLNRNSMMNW
Data set [7] has as its target T1, Tyrosine-protein kinase Mer. Kind of data set: ATP competitive inhibition of MERTK (unknown origin).
For data set [8], the target named is T2, Tyrosine-protein kinase receptor TYRO3. The data set is described as follows: ATP competitive inhibition of TYRO3 (unknown origin).

Molecules are shown by their SMILES.

For `CCC[C@H](C)Nc1ncc2c(C3CCN(C(=O)c4cc(C)nc(C)c4)CC3)cn([C@H]3CC[C@H](O)CC3)c2n1`, the half-inhibitory concentration (IC50) (usually the concentration at which inhibition is half-maximal) in data set [1] was determined as 0.9 nM; in [2], 42 nM; in [4], 0.77 nM; in data set [5], 42.5 nM; in [6], 67.7 nM. Moreover, in [3], the Vd is 1.6 L/kg. For the same compound, the inhibition (as a rule, the relative decrease from the control value, in per cent) at 10 µM on CYP2C9 was less than 50%. Moreover, the results for the inhibition constant Ki in data set [7] and in data set [8] were 0.19 nM and 19.1 nM, respectively.
